Laboratory results taken from PMC5943252, “Contrasting roles for actin in the cellular uptake of cell penetrating peptide conjugates” (Scientific Reports, 2018).
Entries after “also recorded” stand apart in the source; their conditions may differ.

Tests used:
HeLa cells = experiment: Live cell confocal microscopy of uptake of endocytic probes and R8 conjugates, with or without Cyt D; format: cell-based; details: 10 µM Cyt D, 15 min preincubation
Method: HeLa or A431 cells were seeded on 35 mm MatTek dishes (Ashland, US) at respective densities of 5 × 10^5 cells/dish and 1.0 × 10^6 cells/dish and maintained in 2.5 mL D-MEM containing 10%, 100 IU/mL penicillin and 100 µg/mL streptomycin. Cells were then allowed to adhere for 24 hr at 37 °C/5% CO2 to reach a confluence of ~80%. On the day of experimentation, they were washed with PBS and then incubated with 100 µl serum-free D-MEM (thus reducing well described serum binding effects[32]) containing either 2 µM CPP conjugate (R8-Alexa488 or EGFP-R8), 5 µg/ml transferrin-Alexa 647 (TF-647) or 0.1 mg/ml dextran (10 kDa)-Alexa 647 (Dex-647). The cells were then incubated for 1 hr (or 30 min for TF-647) at 37 °C/5% CO2 before washing 3x with PBS (TF-647 or Dex-647) or PBS 0.5 mg/mL heparin (R8-conjugates). […]
Cells were seeded on MatTek dishes as previously described and were washed with PBS before preincubation at 37 °C with diluent control (DMSO) or actin inhibitors: 10 µM Cyt D for 15 min; 0.1–1 µM Lat B for 30 min; 0.2–4 µM JAS for 45 min; 50–100 µM Y27632 for 4 hr in serum-free D-MEM at 37 °C/5% CO2. […] EGFP-R8 (2 µM) was then added for 1 hr in the absence or presence of 10 µM Cyt D. EGFP-R8 and Dex-647 subcellular distribution was then analysed in live cells using confocal microscopy. […]

A431 cells [1] = experiment: Flow cytometry of transferrin-Alexa647 uptake with acid wash; format: cell-based; details: 10 µM Cyt D, 15 min preincubation, then 5 µg/ml TF-647 for 30 min with Cyt D, acid washing of surface label, three separate experiments
Method: A431 cells were seeded onto 12-well plates and cultured for 24 hr to be ~80% confluent on the day of experiment. Cells were washed twice with PBS and then incubated with diluent control (DMSO/dH2O) or actin inhibitors as previously described. They were then loaded with serum-free DMEM containing either 2 µM EGFP-R8, 5 µg/ml TF-647 or 0.1 mg/ml Dex-647 in the presence or absence of actin inhibitors for times stipulated in the figure legends. The plates were then placed on ice to prevent further uptake and washed 3x with either ice-cold PBS or 0.5 mg/ml heparin in PBS. To remove the plasma membrane bound TF, cells were washed 3x with ice-cold PBS followed by an incubation for 1 min in ice-cold acid wash (0.2 M acetic acid, 0.2 M NaCl, pH 2.0)[33]. […] The obtained cell suspension was washed 3x with ice-cold PBS and finally resuspended in 300 µl ice-cold PBS for measurement of cell-associated fluorescence (cell gate 50,000 cells) by flow cytometry on a BD FACSVerse utilising a 488 laser and 527/32 filter for EGFP analysis and a 633 nm laser and 660/10 filter for Alexa 647. Cells were gated using FSC-A/SSC-A to isolate single cell populations and analysed using FlowJo.
Flow cytometry measurements represent the mean fluorescence from three independent experiments performed in duplicate, where each individual data point was the geometric mean. […]

[2] = tested on: actin architecture in A431 cells; experiment: Actin cytoskeleton visualisation (Rh-P staining, confocal microscopy); format: cell-based; details: for effect on organisation of the actin cytoskeleton: A431 cells, 4 hr, Rh-P staining
Method: Analysis was performed on a Leica SP5 confocal laser scanning microscope, equipped with laser lines: 405 Blue Diode (Excitation wavelength 405 nm for Hoechst 33342) Argon (Excitation wavelength 488 nm for Alexa 488 or EGFP), Helium Neon Laser 1 (Excitation wavelength 543 nm for Tetramethyl-Rhodamine Phalloidin (Rh-P)) and Laser 2 (Excitation wavelength 633 nm for Alexa 647 conjugates). All images presented in this study were obtained using a HCX PL APO 63x 1.4 NA oil immersion objective with Leica Type F immersion oil. Parameters “Gain” and “Off-set” of the individual photomultiplier tubes were adjusted between experiments in order to obtain optimal image acquisition avoiding saturation. For multi-channel image acquisition, the channels were scanned in a sequential recording mode to avoid spectral cross-talk caused by overlapping excitation and/or emission spectra of fluorophores. Acquisition mode “XYZ” and image resolutions (pixels/image) of 512 × 512 or 1024 × 1024 were selected and pinhole size was set to 1 Airy Unit. Depending on acquisition requirements the scan speed was set as either 400 or 700 Hz and for single section images, the same optical section was scanned 3x to generate a line average image. Captured images were then analysed using ImageJ. In some cases (live cell imaging) the same cells were also imaged using […] microscopy (DIC).
A recently described method was utilised giving information on actin architecture at different regions of the cells termed basal and cell body and apex (CBA). For actin staining, HeLa (0.5 × 10^6 cells/well) or A431 (1.0 × 10^6 cells/well) cells in 2.5 mL D-MEM containing 10% FBS were seeded on round borosilicate No.1.5 cover slips in 6 –well plates and allowed to adhere for 24 hr at 37 °C/5% CO2, to reach a confluence of ~80%. The cells were then treated with actin disrupters as described above, washed 3x with PBS and fixed for 15 min at room temperature with 3% PFA in PBS. Cells were then washed 3x with PBS and permeabilised with 0.2% Triton X-100 in PBS at room temperature for 5 min, washed 3x with PBS and stained for cell nuclei with 1.0 µg/ml Hoechst 33342 in PBS and for polymerised actin with 1.0 µg/ml Rh-P in PBS for 15 min at room temperature. The cells were finally washed 3x with PBS and once with distilled water, coverslips were mounted in DAKO mounting medium on glass microscope slides and imaged by confocal microscopy.

HeLa = details: cited from earlier work
Excerpt: (§1) Cyt D binds to the fast-growing ends of actin nuclei and filaments, preventing addition of monomeric actin to these sites. […] Here we further explored these contradictory effects by also performing uptake studies with recomb ...

A431 = details: cited from earlier work
Excerpt: as §1

A431 cells [3] = experiment: Flow cytometry of cellular uptake of EGFP-R8 in the presence of actin inhibitors; format: cell-based; details: for Normalised Fluoresence Intensity (EGFP-R8): three independent experiments
Method: A431 cells were seeded onto 12-well plates and cultured for 24 hr to be ~80% confluent on the day of experiment. Cells were washed twice with PBS and then incubated with diluent control (DMSO/dH2O) or actin inhibitors as previously described. They were then loaded with serum-free DMEM containing either 2 µM EGFP-R8, 5 µg/ml TF-647 or 0.1 mg/ml Dex-647 in the presence or absence of actin inhibitors for times stipulated in the figure legends. The plates were then placed on ice to prevent further uptake and washed 3x with either ice-cold PBS or 0.5 mg/ml heparin in PBS. To remove the plasma membrane bound TF, cells were washed 3x with ice-cold PBS followed by an incubation for 1 min in ice-cold acid wash (0.2 M acetic acid, 0.2 M NaCl, pH 2.0)[33]. All cells were then washed twice with PBS at room temperature before trypsinisation at 37 °C for 5 min before placing the detached cells in centrifuge tubes and centrifuging at 4 °C for 3 min at 800 × g. The obtained cell suspension was washed 3x with ice-cold PBS and finally resuspended in 300 µl ice-cold PBS for measurement of cell-associated fluorescence (cell gate 50,000 cells) by flow cytometry on a BD FACSVerse utilising a 488 laser and 527/32 filter for EGFP analysis and a 633 nm laser and 660/10 filter for Alexa 647. Cells were gated using FSC-A/SSC-A to isolate single cell populations and analysed using FlowJo.
Flow cytometry measurements represent the mean fluorescence from three independent experiments performed in duplicate, where each individual data point was the geometric mean. A two-tailed unpaired Students t-test was used to test for differences within experiments. Significant differences were classed as having a P value of < 0.05.

A431 cells [4] = experiment: Live cell confocal microscopy of uptake of endocytic probes and R8 conjugates, with or without actin inhibitors; format: cell-based; details: 10 µM Cyt D, 15 min preincubation
Method: HeLa or A431 cells were seeded on 35 mm MatTek dishes (Ashland, US) at respective densities of 5 × 10^5 cells/dish and 1.0 × 10^6 cells/dish and maintained in 2.5 mL D-MEM containing 10%, 100 IU/mL penicillin and 100 µg/mL streptomycin. Cells were then allowed to adhere for 24 hr at 37 °C/5% CO2 to reach a confluence of ~80%. On the day of experimentation, they were washed with PBS and then incubated with 100 µl serum-free D-MEM (thus reducing well described serum binding effects[32]) containing either 2 µM CPP conjugate (R8-Alexa488 or EGFP-R8), 5 µg/ml transferrin-Alexa 647 (TF-647) or 0.1 mg/ml dextran (10 kDa)-Alexa 647 (Dex-647). The cells were then incubated for 1 hr (or 30 min for TF-647) at 37 °C/5% CO2 before washing 3x with PBS (TF-647 or Dex-647) or PBS 0.5 mg/mL heparin (R8-conjugates). They were then washed once with PBS, prior to the addition of 2 mL of imaging medium (phenol red free RPMI, 20 mM HEPES pH 7.4) and analysis by live cell confocal microscopy.
Cells were seeded on MatTek dishes as previously described and were washed with PBS before preincubation at 37 °C with diluent control (DMSO) or actin inhibitors: 10 µM Cyt D for 15 min; 0.1–1 µM Lat B for 30 min; 0.2–4 µM JAS for 45 min; 50–100 µM Y27632 for 4 hr in serum-free D-MEM at 37 °C/5% CO2. Endocytic probes (TF-647, Dex-647) or R8-conjugates were then incubated with the cells in the absence (control) or presence of the inhibitors and further incubated at 37 °C/5% CO2 for times specified in figure legends prior to analysis by confocal microscopy. For pulse chase experiments, A431 cells were incubated with 0.1 mg/ml Dex-647 for 2 hr (pulse) followed by washing and a further 4 hr (chase) in fresh complete growth medium. EGFP-R8 (2 µM) was then added for 1 hr in the absence or presence of 10 µM Cyt D. EGFP-R8 and Dex-647 subcellular distribution was then analysed in live cells using confocal microscopy. For low temperature experiments, cells were preincubated with Cyt D as above and then placed on ice for 2 min prior to addition of ice cold EGFP-R8. The cells were then maintained under these conditions for 1 hr prior to analysis by confocal microscopy.
Analysis was performed on a Leica SP5 confocal laser scanning microscope, equipped with laser lines: 405 Blue Diode (Excitation wavelength 405 nm for Hoechst 33342) Argon (Excitation wavelength 488 nm for Alexa 488 or EGFP), Helium Neon Laser 1 (Excitation wavelength 543 nm for Tetramethyl-Rhodamine Phalloidin (Rh-P)) and Laser 2 (Excitation wavelength 633 nm for Alexa 647 conjugates). All images presented in this study were obtained using a HCX PL APO 63x 1.4 NA oil immersion objective with Leica Type F immersion oil. Parameters “Gain” and “Off-set” of the individual photomultiplier tubes were adjusted between experiments in order to obtain optimal image acquisition avoiding saturation. For multi-channel image acquisition, the channels were scanned in a sequential recording mode to avoid spectral cross-talk caused by overlapping excitation and/or emission spectra of fluorophores. Acquisition mode “XYZ” and image resolutions (pixels/image) of 512 × 512 or 1024 × 1024 were selected and pinhole size was set to 1 Airy Unit. Depending on acquisition requirements the scan speed was set as either 400 or 700 Hz and for single section images, the same optical section was scanned 3x to generate a line average image. Captured images were then analysed using ImageJ. […]

macrophages = details: cited from earlier work
Excerpt: Through interaction with the Rho GTPase, ROCKs play a central role in actin network assembly and membrane association. In A431 cells the effects of Y27632 on the actin cytoskeleton was more subtle than that observed with the agents that directly targeted actin. […] In contrast to results o ...

Row | SMILES | effect on internalisation of R8-Alexa 488 (HeLa cells; then 2 µM R8-Alexa 488 for 1 hr with Cyt D, heparin wash) | effect on cell associated transferrin fluorescence (HeLa cells; then 5 µg/ml TF-647 for 30 min with Cyt D, vs control) | effect on fluorescence uptake of transferrin (A431 cells [1]) | effect on actin organisation ([2]; Cyt D at concentrations >5 µM) | effect on uptake of dextran (HeLa; HeLa cells) | effect on uptake of Alexa488-CPPs R8 and Tat (HeLa; HeLa, flow cytometry) | effect on uptake of Alexa488-CPPs R8 and Tat (A431; A431, flow cytometry) | effect on uptake of dextran (A431; A431 cells) | Normalised Fluoresence Intensity (EGFP-R8) (A431 cells [3]; 10 µM Cyt D, 15 min preincubation, then 2 µM EGFP-R8 for 1 hr with Cyt D, geometric means, normalised to diluent control) | fold increase in intracellular fluorescence (EGFP-R8 uptake) (A431 cells [3]; 10 µM Cyt D, 15 min preincubation, then 2 µM EGFP-R8 for 1 hr with Cyt D, serum-free D-MEM, 37 °C, washed, trypsinised, vs diluent control, P = 0.0036, three independent experiments) [fold] | effect on internalisation of EGFP-R8 (A431 cells [4]; then 2 µM EGFP-R8 for 1 hr with Cyt D, heparin wash) | effect on uptake of R8-Alexa488 (A431 cells [4]; then 2 µM R8-Alexa488 for 1 hr with Cyt D, heparin wash) | effect on uptake of dextran-Alexa647 (A431 cells [4]; then 0.1 mg/ml 10 kDa Dex-647 for 1 hr with Cyt D) | effect on organisation of the actin cytoskeleton ([2]; Y27632 1 and 10 μM (up to 10 μM)) | effect on organisation of the actin cytoskeleton ([2]; Y27632 at higher concentrations (50, 100 μM)) | inhibition of uptake of 70 KDa dextran (macrophages) | inhibition of cell uptake of EGFP-R8 (A431 cells [3]; 100 µM Y27632, 4 hr preincubation, then 2 µM EGFP-R8 for 1 hr with Y27632, P = 0.02) | Normalised Fluoresence Intensity (EGFP-R8) (A431 cells [3]; 100 µM Y27632, 4 hr preincubation, then 2 µM EGFP-R8 for 1 hr with Y27632, mean of geometric means)
1 | C=C1[C@@H](C)[C@H]2[C@H](Cc3ccccc3)NC(=O)[C@]23[C@H](OC(C)=O)/C=C/[C@@](C)(O)C(=O)[C@@H](C)C/C=C/[C@H]3[C@@H]1O [Cyt D, cytochalasin D] | inhibited; also recorded: reduction in uptake | not markedly different | no difference in fluorescence uptake | completely destroys actin organisation | no effect | inhibited | inhibited | increased uptake | 4.55 | 4.5 | dramatically enhanced | less of a noticeable reduction in uptake; also recorded: inhibition | dramatically increased | – | – | – | – | –
2 | C[C@@H](N)[C@H]1CC[C@H](C(=O)Nc2ccncc2)CC1.Cl.Cl (relative stereo) [Y27632, (+)-(R)-trans-4-(1-aminoethyl)-N-(4-pyridyl) cyclohexanecarboxamide dihydrochloride] | – | – | – | – | – | – | – | – | – | – | – | – | – | no visible changes in the organisation of the actin cytoskeleton | extensive actin deformities | ~ 50% | ~ 20% | 0.77
